According to PubChem BioAssay AID1996:
Converted amounts (≈) assume the structure as drawn.

settings: buffer; pH 7.4; 200.0 µM

Point of comparison: Cn1ccnc1SCC(=O)NC1CCCC1, solubility kinetic 28.8 µg/mL (≈ 120 µM). Against it:
- CN(C)c1ccc(NC(=O)CN2CCN(c3ccc(F)cc3)CC2)cc1 — 12-fold lower, 2.5 µg/mL (≈ 7.01 µM)
- CC(C)(C)c1ccc(Oc2ccc(NC(=O)CCCC(=O)O)cn2)cc1 — higher, > 53.5 µg/mL
- Nc1ncnc(Nc2c(F)cccc2F)n1 — higher, > 33.5 µg/mL
- CCOc1cccc(/C=C/c2ccc3cccc(O)c3n2)c1O — lower, < 0.7 µg/mL
- COc1ccc(-n2c(C)c(C)c3c(NCCCO)ncnc32)cc1 — higher, > 49 µg/mL
- COc1cccc(CNc2nc3ccccc3n2C)c1O — 4.6-fold lower, 6.2 µg/mL (≈ 21.9 µM)
- Cc1ccc(C(=O)NNC(=O)c2ccncc2)cc1[N+](=O)[O-] — higher, > 45 µg/mL
- O=C(CNC(=O)OCc1ccccc1)Nc1ccc(F)cc1 — 2.8-fold lower, 10.3 µg/mL (≈ 34.1 µM)
- CN(c1ccccc1)c1nc(N)c([N+](=O)[O-])c(N2CCCCC2)n1 — 2.2-fold lower, 13 µg/mL (≈ 39.6 µM)
- COc1ccc(OC)c(NC(=O)CCC(=O)Oc2ccc(C)cc2)c1 — 1.7-fold higher, 49.1 µg/mL (≈ 143 µM)
- CC(C)N1CCN(Cc2cnc(-c3ccccc3)s2)CC1CCO (configuration not stated) — higher, > 51.8 µg/mL
- COc1ccc(N(CC(=O)NC2CCCCC2)S(=O)(=O)c2cccs2)cc1 — 24-fold lower, 1.2 µg/mL (≈ 2.94 µM)
- O=C(COc1ccc(Cl)cc1)NCc1ccc(F)cc1 — within 1.5-fold, 41.5 µg/mL (≈ 141 µM)
- CCC(=O)Nc1cc(C(=O)O)ccc1Sc1ccc(C)cc1 — within 1.5-fold, 38.8 µg/mL (≈ 123 µM)
- CC1C(=O)N2CCCc3cc(S(=O)(=O)N4CCCCC4)cc1c32 (configuration not stated) — higher, > 50.2 µg/mL
- Cc1ccc(C(=O)C(C)OC(=O)Cn2c(C)csc2=O)cc1 (configuration not stated) — higher, > 47.9 µg/mL
- COc1ccc(NS(=O)(=O)c2cn(C)c(=O)n(C)c2=O)c(OC)c1 — higher, > 53.3 µg/mL
- Cc1ccc(/C=C2\SC(=S)N(c3cccnc3)C2=O)cc1 — lower, < 0.3 µg/mL
- O=C(O)CN1C(=O)C(=O)N(Cc2ccc(Cl)cc2Cl)C1=O — higher, > 49.7 µg/mL
- O=[N+]([O-])c1ccc(Oc2cccnc2)nc1 — within 1.5-fold, 25.5 µg/mL (≈ 117 µM)
- O=C(COc1ccc(F)cc1)NCCNC(=O)COc1ccc(F)cc1 — 2.6-fold lower, 11.2 µg/mL (≈ 30.7 µM)
- Cc1ccc(Nc2nc(C)c3c(n2)CC(C)CC3=O)c(C)c1 (configuration not stated) — 17-fold lower, 1.7 µg/mL (≈ 5.76 µM)
- CSc1nc(C)nc(C2CC2)c1C#N — 24-fold lower, 1.2 µg/mL (≈ 5.85 µM)
- CCN(C(=O)COC(=O)c1nccnc1N)c1cccc2ccccc12 — higher, > 52.6 µg/mL
- Cc1nc2c(C)cccc2c2c1CCS2 — 58-fold lower, 0.5 µg/mL (≈ 2.32 µM)
- O=C(c1c[nH]c2ccccc12)C(Cl)c1ccccc1 (configuration not stated) — 14-fold lower, 2.1 µg/mL (≈ 7.79 µM)
- Cc1ccc(C)c(NC(=O)C2CCCN(c3cnccn3)C2)c1 (configuration not stated) — 17-fold lower, 1.7 µg/mL (≈ 5.48 µM)
- O=C(NCC1CCCCC1)c1ccc(=O)[nH]c1 — higher, > 35.1 µg/mL
- COc1cc(N=c2ssnc2Cl)c(OC)cc1Cl — 1.8-fold lower, 15.6 µg/mL (≈ 48.3 µM)
- COc1ccc(OCC(=O)NCCNC(=O)c2cccnc2)cc1 — 1.7-fold higher, 47.8 µg/mL (≈ 145 µM)
- CCOC(=O)c1csc(NC(=O)CCSc2ccccc2)n1 — 26-fold lower, 1.1 µg/mL (≈ 3.27 µM)
- Cc1cccc(C)c1NC(=O)CSc1n[nH]c(=O)n1C1CC1 — higher, > 47.8 µg/mL
- N#CC1=C(N)Oc2cc(N)ccc2C1c1ccccc1F (configuration not stated) — 5.9-fold lower, 4.9 µg/mL (≈ 17.4 µM)
- O=C(Nc1ccc(Cl)c(Cl)c1)Nc1ccccc1O — 3.4-fold lower, 8.5 µg/mL (≈ 28.6 µM)
- COCCNC(=O)/C(C#N)=C/c1cc(Br)c(O)c(OC)c1 — 1.6-fold higher, 45 µg/mL (≈ 127 µM)
- CC(=O)NCc1cc(-c2ccc(Cl)cc2)no1 — within 1.5-fold, 37.2 µg/mL (≈ 148 µM)
- Cc1ccc2c(COC(=O)C3CSC4(C)CCC(=O)N34)cc(=O)oc2c1C (configuration not stated) — within 1.5-fold, 38.4 µg/mL (≈ 99.1 µM)
- O=S(=O)(NCC1CCCO1)c1ccccc1 (configuration not stated) — higher, > 36.2 µg/mL
- CCC(C(=O)Nc1c(C)cc(C)cc1C)N1CCCCCC1 (configuration not stated) — within 1.5-fold, 41 µg/mL (≈ 136 µM)
- O=C(c1cccs1)N1CCN(c2ccc([N+](=O)[O-])cc2F)CC1 — 6.1-fold lower, 4.7 µg/mL (≈ 14 µM)
- CCN(CC)C(=O)COc1ccc2c(-c3ccccc3)cc(=O)oc2c1 — within 1.5-fold, 40.7 µg/mL (≈ 116 µM)
- COc1ccc(CCNC(=O)c2cc(C)oc2C)cc1OC — within 1.5-fold, 42 µg/mL (≈ 138 µM)
- CN1CCN(c2ccc(Cl)cc2NC(=O)/C=C/c2cccc(F)c2)CC1 — within 1.5-fold, 34.4 µg/mL (≈ 92 µM)
- Cc1noc(C)c1COC(=O)c1cc(S(=O)(=O)N2CCOCC2)ccc1Cl — within 1.5-fold, 42.4 µg/mL (≈ 102 µM)
- COC(=O)C1=C(C)OC(N)=C(C#N)C12C(=O)Nc1ccccc12 (configuration not stated) — higher, > 46.7 µg/mL
- CNc1c(-n2cc(C(=O)OC)c(C(=O)OC)c2C(=O)OC)c(=O)n(C)c(=O)n1C — 2-fold higher, 56.7 µg/mL (≈ 139 µM)
- COC(=O)C1CC(=O)N(Cc2ccccc2)C1 (configuration not stated) — higher, > 35 µg/mL
- O=Cc1c(Cl)nc2ccccn2c1=O — higher, > 31.3 µg/mL
- Cc1cc(C)c(OCCCn2ccnc2)c(C)c1 — within 1.5-fold, 27.2 µg/mL (≈ 111 µM)
- CCC1CCCCN1S(=O)(=O)c1ccccc1 (configuration not stated) — within 1.5-fold, 31.5 µg/mL (≈ 124 µM)
- Cc1cc(=O)[nH]c(SCC(=O)c2ccc(O)c(O)c2)n1 — higher, > 43.8 µg/mL
- Cc1c(C)n2c3c(cccc13)CC2 — 72-fold lower, 0.4 µg/mL (≈ 2.34 µM)
- CN1CCN(Cc2ccc3ccccc3c2)CC1 — within 1.5-fold, 20.6 µg/mL (≈ 85.7 µM)
- Cc1ccccc1/C=C/C12NC(=O)CN1c1ccccc1C2(C)C (configuration not stated) — 29-fold lower, 1 µg/mL (≈ 3.14 µM)
- Cc1snc(SCc2ccc(Cl)cc2)c1C#N — lower, < 0.3 µg/mL
- CC(C)CCc1noc(CN(CC2CCC2)CC2CCCO2)n1 (configuration not stated) — 2.4-fold lower, 11.9 µg/mL (≈ 37 µM)
- CC(C)CCOc1ccc(C2CC(=O)N(C)C2=O)cc1 (configuration not stated) — within 1.5-fold, 40.3 µg/mL (≈ 146 µM)
- Cc1ccccc1NC(=S)Nc1ccccc1 — 1.5-fold lower, 18.8 µg/mL (≈ 77.6 µM)
- Cc1cccc(NC(=O)CCN2CCCCC2)c1.Cl — higher, > 42.4 µg/mL
- O=C(Nc1ccccc1O)C(c1ccccc1)c1ccccc1 — 3.2-fold lower, 9 µg/mL (≈ 29.7 µM)
- CN1CCC(NC(=O)NC2CCCCC2)CC1 — higher, > 35.9 µg/mL
